In the supplement of paper PMC10307832:

Tests used:
Assay in all cases: relative viability (nuclei count vs DMSO), 5 days (fraction); higher = more cells survive
[1] = compound: COC1=CC(c2cc3ccccc3[nH]2)=N/C1=C\c1[nH]c(C)cc1C [Obatoclax] + Cc1cc(Nc2cc(N3CCN(C)CC3)nc(Sc3ccc(NC(=O)C4CC4)cc3)n2)n[nH]1 [Tozasertib] (partner 0.1 µM)
Outline: (§1)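 For relative viability, nuclei counts in treated wells were divided by those in vehicle wells. Lung cancer cell lines had been pin-tool dosed in 1536-well plates the day after seeding and cultured for 5 days, then fixed and stained in one step (final 0.05% Triton X-100, 1% formaldehyde, 1 ug/ml Hoechst) and imaged at 4×. Doses were one drug alone or a fixed anchor-drug dose plus five library-drug doses (not always all listed) in √10 steps, and values are duplicate-plate medians.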

[2] = compound: CC(C)C[C@H](NC(=O)[C@H](Cc1ccccc1)NC(=O)c1cnccn1)B(O)O [Bortezomib] + CS(=O)(=O)N1CCN(Cc2cc3nc(-c4cccc5[nH]ncc45)nc(N4CCOCC4)c3s2)CC1 [Pictilisib] (partner 1 µM)
Outline: as §1

[3] = compound: CC1=CC(=NN1)NC2=CC(=NC(=N2)/C=C/C3=CC=CC=C3)N4CCN(CC4)C + O=C(c1cc(Cc2n[nH]c(=O)c3ccccc23)ccc1F)N1CCN(C(=O)C2CC2)CC1 [Olaparib] (partner 8 µM)
Outline: as §1

[4] = compound: CC(C)C[C@H](NC(=O)[C@H](Cc1ccccc1)NC(=O)c1cnccn1)B(O)O [Bortezomib] + O=C(c1cc(Cc2n[nH]c(=O)c3ccccc23)ccc1F)N1CCN(C(=O)C2CC2)CC1 [Olaparib] (partner 8 µM)
Outline: as §1

Row | Cell Line | relative viability ([1]; first compound 0.01 µM) | relative viability ([1]; first compound 0.03162 µM) | relative viability ([1]; first compound 0.1 µM) | relative viability ([1]; first compound 0.3162 µM) | relative viability ([1]; first compound 1 µM) | relative viability ([2]; first compound 0.0002 µM) | relative viability ([2]; first compound 0.000632 µM) | relative viability ([2]; first compound 0.002 µM) | relative viability ([2]; first compound 0.006325 µM) | relative viability ([2]; first compound 0.02 µM) | relative viability ([3]; first compound 0.08 µM) | relative viability ([3]; first compound 0.253 µM) | relative viability ([3]; first compound 0.8 µM) | relative viability ([3]; first compound 2.53 µM) | relative viability ([3]; first compound 8 µM) | relative viability ([4]; first compound 0.0002 µM) | relative viability ([4]; first compound 0.000632 µM) | relative viability ([4]; first compound 0.002 µM) | relative viability ([4]; first compound 0.006325 µM) | relative viability ([4]; first compound 0.02 µM)
1 | COR-L23 | 0.233 | 0.182 | 0.217 | 0.111 | 0.108 | 0.922 | 0.777 | 0.609 | 0.0347 | 0.0399 | 0.335 | 0.339 | 0.32 | 0.126 | 0.0705 | 0.37 | 0.375 | 0.203 | 0.0613 | 0.0717
2 | RERF-LC-KJ | 0.444 | 0.536 | 0.487 | 0.493 | 0.281 | 0.573 | 0.528 | 0.523 | 0.171 | 0.203 | 0.982 | 0.88 | 0.882 | 0.243 | 0.201 | 0.803 | 1.02 | 0.728 | 0.286 | 0.199
3 | NCI-H1755 | 0.542 | 0.537 | 0.574 | 0.574 | 0.515 | 0.441 | 0.322 | 0.43 | 0.171 | 0.137 | 0.877 | 0.89 | 0.856 | 0.514 | 0.253 | 0.845 | 0.896 | 0.828 | 0.241 | 0.207
4 | PC-14 | 0.553 | 0.562 | 0.473 | 0.535 | 0.348 | 0.685 | 0.726 | 0.632 | 0.0319 | 0.0362 | 0.285 | 0.289 | 0.275 | 0.0326 | 0.0264 | 0.239 | 0.282 | 0.323 | 0.0333 | 0.0494
5 | NCI-H322M | 0.505 | 0.451 | – | 0.463 | 0.344 | 0.49 | – | 0.523 | 0.459 | 0.554 | 0.662 | 0.762 | 0.742 | 0.486 | 0.281 | 0.755 | 0.704 | 0.825 | 0.586 | 0.452
6 | NCI-H1666 | 0.634 | 0.739 | 0.694 | 0.367 | 0.398 | 0.451 | 0.518 | 0.41 | 0.198 | 0.168 | 0.748 | 0.7 | 0.767 | 0.741 | 0.501 | 0.684 | 0.783 | 0.697 | 0.511 | 0.45
7 | A-427 | 0.164 | 0.24 | 0.243 | 0.212 | 0.191 | 0.673 | 0.626 | 0.771 | 0.703 | 0.175 | 0.815 | 0.774 | 0.913 | 0.468 | 0.158 | 0.711 | 0.727 | 0.759 | 0.188 | 0.151
8 | NCI-H358 | 0.105 | 0.117 | 0.0958 | 0.0729 | 0.065 | 0.331 | 0.305 | 0.357 | 0.207 | 0.16 | 0.505 | 0.644 | 0.486 | 0.209 | 0.068 | 0.773 | 0.541 | 0.46 | 0.0684 | 0.076
9 | NCI-H1651 | 0.796 | 0.752 | 0.737 | 0.552 | 0.468 | 0.406 | 0.532 | 0.591 | 0.0909 | 0.0929 | 0.177 | 0.189 | 0.176 | 0.166 | 0.135 | 0.181 | 0.194 | 0.144 | 0.0868 | 0.0799
10 | NCI-H520 | 0.42 | 0.434 | 0.492 | 0.402 | 0.295 | 0.269 | 0.283 | 0.229 | 0.184 | 0.184 | 0.3 | 0.332 | 0.307 | 0.152 | 0.104 | 0.333 | 0.334 | 0.218 | 0.117 | 0.116
11 | 201T | 0.896 | 0.94 | 0.93 | 0.876 | 1.04 | 0.677 | 0.707 | 0.698 | 0.684 | 0.541 | 0.838 | 0.837 | 0.828 | 0.819 | 0.487 | 0.83 | 0.856 | 0.803 | 0.753 | 0.214
12 | NCI-H460 | 0.419 | 0.504 | 0.424 | 0.443 | 0.188 | 0.334 | 0.376 | 0.435 | 0.36 | 0.346 | 0.38 | 0.362 | 0.427 | 0.147 | 0.025 | 0.355 | 0.422 | 0.392 | 0.0694 | 0.0397
13 | NCI-H596 | 0.911 | 0.915 | 0.837 | 0.564 | 0.597 | 0.513 | 0.369 | 0.327 | 0.15 | 0.128 | 0.729 | 0.607 | 0.601 | 0.412 | 0.24 | 0.723 | 0.709 | 0.445 | 0.186 | 0.187
14 | HARA | 0.101 | 0.154 | 0.146 | 0.124 | 0.132 | 0.479 | 0.529 | 0.481 | 0.0462 | 0.0659 | 0.617 | 1.01 | 0.582 | 0.121 | 0.099 | 0.973 | 0.809 | 0.872 | 0.0712 | 0.0979
15 | NCI-H1793 | 0.309 | 0.393 | 0.406 | 0.324 | 0.297 | 0.282 | 0.305 | 0.297 | 0.269 | 0.18 | 0.845 | 1.06 | 0.667 | 0.138 | 0.0993 | 0.848 | – | 0.904 | 0.276 | 0.126
16 | NCI-H2126 | 0.908 | 0.827 | 0.87 | 0.832 | 0.819 | 0.462 | 0.497 | 0.535 | 0.465 | 0.483 | 0.865 | 0.91 | 0.908 | 0.801 | 0.518 | 0.851 | 0.903 | 0.9 | 0.794 | 0.184
17 | HCC-827 | 0.389 | 0.418 | 0.44 | 0.412 | 0.411 | 0.772 | 0.956 | 0.984 | 0.82 | 0.235 | 0.605 | 0.622 | 0.708 | 0.62 | 0.263 | 0.725 | 0.611 | 0.357 | 0.14 | 0.138
18 | ABC-1 | 0.181 | 0.17 | 0.177 | 0.209 | 0.223 | 0.285 | 0.372 | 0.292 | 0.24 | 0.258 | 0.904 | 0.946 | 1.01 | 0.647 | 0.324 | 0.897 | 0.922 | 0.374 | 0.342 | 0.424
19 | BEN | 0.491 | 0.467 | – | 0.626 | 0.506 | 0.542 | 0.557 | 0.531 | 0.366 | 0.24 | 0.985 | 1.17 | 0.987 | 0.606 | 0.275 | 1.15 | 0.921 | 0.845 | 0.742 | 0.218
20 | ChaGo-K-1 | 0.247 | 0.24 | 0.243 | 0.24 | 0.235 | – | – | 0.707 | 0.29 | 0.207 | 0.371 | 0.42 | 0.38 | 0.234 | 0.148 | 0.387 | 0.385 | 0.432 | 0.151 | 0.115
21 | NCI-H23 | 0.378 | 0.484 | 0.454 | 0.301 | 0.241 | – | 0.407 | 0.381 | 0.144 | 0.131 | 0.303 | 0.325 | 0.224 | 0.134 | 0.108 | 0.362 | – | 0.247 | 0.0989 | 0.0819
22 | UMC-11 | 0.202 | 0.197 | 0.234 | 0.249 | 0.22 | 0.703 | 0.751 | 0.741 | 0.393 | 0.138 | 0.361 | 0.39 | 0.395 | 0.0656 | 0.167 | 0.441 | 0.398 | 0.348 | 0.189 | 0.133
23 | NCI-H1975 | 0.706 | 0.837 | – | 0.658 | 0.131 | 0.271 | 0.22 | 0.173 | 0.105 | 0.115 | 0.75 | 0.842 | 0.726 | 0.389 | 0.115 | 0.779 | 0.766 | 0.16 | 0.103 | 0.126
24 | COR-L 105 | 0.381 | 0.316 | 0.345 | 0.284 | 0.248 | 0.377 | 0.324 | 0.389 | 0.322 | 0.326 | 0.591 | 0.688 | 0.691 | 0.658 | 0.27 | 0.692 | 0.683 | 0.72 | 0.419 | 0.356
25 | LK-2 | 0.194 | 0.175 | 0.197 | 0.208 | 0.149 | – | 0.559 | 0.295 | 0.251 | 0.245 | 0.699 | 0.772 | 0.684 | 0.29 | 0.0845 | 0.699 | 0.695 | 0.714 | 0.169 | 0.123
26 | EKVX | 0.371 | 0.357 | 0.466 | 0.385 | 0.394 | 0.429 | 0.426 | 0.463 | 0.33 | 0.0746 | 0.779 | 0.804 | 0.904 | 0.695 | 0.157 | 0.763 | 0.81 | 0.812 | 0.237 | 0.11
27 | NCI-H2009 | 0.771 | 0.824 | 0.703 | 0.291 | 0.255 | 0.602 | 0.675 | 0.797 | 0.0767 | 0.06 | 0.657 | 0.746 | 0.691 | 0.811 | 0.324 | 0.654 | 0.661 | 0.693 | 0.222 | 0.049
28 | NCI-H838 | 0.292 | 0.253 | 0.292 | 0.25 | 0.221 | 0.425 | 0.499 | 0.556 | 0.158 | 0.128 | 0.752 | 0.749 | 0.564 | 0.139 | 0.0822 | 0.739 | 0.789 | 0.792 | 0.124 | 0.0906
29 | NCI-H2085 | 0.751 | 0.826 | 0.895 | 0.776 | 0.645 | 0.404 | 0.465 | 0.447 | 0.39 | 0.218 | 0.783 | 0.792 | 0.755 | 0.429 | 0.28 | 0.8 | 0.802 | 0.688 | 0.232 | 0.211
